Results taken from US7078414B2, “Derivatives of 3-guanidinocarbonyl-1-heteroaryl-pyrrole, preparation process and intermediates of this process, their use as medicaments, and pharmaceutical compositions comprising them” (Sanofi-Aventis Deutschland GmbH, priority 2002, dated 2006).
Counter-ions that a name gives are not always drawn.

How the values were obtained:
NHE-1 subtype = target: T1, NHE-1 subtype (Homo sapiens, UniProt P19634); assay: NHE inhibition FLIPR test (intracellular pH recovery, BCECF) in transfected LAP-1 cell lines expressing NHE subtypes; format: cell-based; conditions: transfected LAP-1 cells expressing NHE-1 subtype, read-out: IC50 (NHE1)
T1 construct: expressed in transfected cells; host or cells: LAP-1 cells (parental line has no endogenous NHE activity), stably transfected and kept under G418 selection
Method: The NHE inhibitory activities (IC50 values) of the compounds according to the invention were determined by a FLIPR test.
The test is performed in the FLIPR (Fluorescent Imaging Plate Reader) equipped with clear-bottomed and black-walled 96-well microtitration plates.
The growth medium for the transfected cells (Iscove +10% foetal calf serum) also comprises G418 as selection antibiotic to ensure the presence of transfected sequences.
The actual test begins by eliminating the growth medium and adding 100 μl of loading buffer per well (5 μM of BCECF-AM [2′,7′-bis(2-carboxyethyl)-5-(6)-carboxyfluoresceine acetoxymethyl ester] in 20 mM of NH4Cl, 115 mM of choline chloride, 1 mM of CaCl2, 5 mM of KCl, 20 mM of HEPES and 5 mM of glucose; pH 7.4 (adjusted with KOH). The cells are then incubated for 20 minutes at 37° C. This incubation results in the loading of the fluorescent dye into the cells, the fluorescence intensity of which depends on the pHi, and on the NH4Cl, which results in a slight basification of the cells.
The precursor BCECF-AM, a non-fluorescent dye, is, as an ester, capable of crossing the membrane. The actual dye, which is incapable of crossing the membrane, is released inside the cell by esterases.
After this 20-minute incubation, the loading buffer, which comprises NH4Cl and free BCECF-AM, is removed by washing three times in the cell washing device (Tecan Columbus), each wash being performed with 400 μL of washing buffer (133.8 mM of choline chloride, 4.7 mM of KCl, 1.25 mM of MgCl2, 1.25 mM of CaCl2, 0.97 mM of K2HPO4, 0.23 mM of KH2PO4, 5 mM of HEPES and 5 mM of glucose; pH 7.4 (adjusted with KOH)). The residual volume remaining in the wells is 90 μL (possibly between 50 and 125 μL). This washing step removes the free BCECF-AM and results in an intracellular acidification (pHi of 6.3–6.4) due to the removal of the external ammonium ions.
As the equilibrium of the intracellular ammonium with the aqueous ammonia and the protons, by removal of the extracellular ammonium and by the subsequent immediate crossing of the aqueous ammonia across the cell membrane, is disrupted, the washing process results in intracellular protons remaining, which is the cause of the intracellular acidification. This acidification can result finally in the death of the cells if it lasts long enough. It is important here for the washing buffer to be free of sodium (<1 mM), otherwise the extracellular sodium ions would result in an immediate increase in the pHi on account of the activity of the cloned NHE isoforms. It is also important for all the buffers used (loading buffer, washing buffer and regeneration buffer) not to contain any HCO3-ions, otherwise the presence of bicarbonate would result in the activation of bicarbonate-dependent systems that disrupt the pHi regulation, which systems are contained in the LAP-1 parental cell line.
The microtiter plates containing acidified cells are then transferred (up to 20 minutes after the acidification) to the FLIPR. In the FLIPR, the intracellular fluorescent dye is activated with light of a wavelength of 488 nm, which is generated by an argon laser, and the measuring parameters (laser power, illumination time and diaphragm of the […] camera integrated into the FLIPR) are chosen such that the average value of the f fluorescent signal per well is between 30,000 and 35,000 relative fluorescence units.
The actual measurement in the FLIPR starts with a photograph being taken by the CCD camera every two seconds under software control. After 10 seconds, the increase in the intracellular pH is initiated by adding 90 μL of regeneration buffer (133.8 mM of NaCl, 4.7 mM of KCl, 1.25 mM of MgCl2, 1.25 mM of CaCl2, 0.97 mM of K2HPO4, 0.23 mM of KH2PO4, 10 mM of HEPES and 5 mM of glucose; pH 7.4 (adjusted with NaOH)) using a 96-well pipette device incorporated into the FLIPR.
Some wells, to which is added pure regeneration buffer, serve as positive controls (100% NHE activity). […]

T1 sequence (P19634 whole entry): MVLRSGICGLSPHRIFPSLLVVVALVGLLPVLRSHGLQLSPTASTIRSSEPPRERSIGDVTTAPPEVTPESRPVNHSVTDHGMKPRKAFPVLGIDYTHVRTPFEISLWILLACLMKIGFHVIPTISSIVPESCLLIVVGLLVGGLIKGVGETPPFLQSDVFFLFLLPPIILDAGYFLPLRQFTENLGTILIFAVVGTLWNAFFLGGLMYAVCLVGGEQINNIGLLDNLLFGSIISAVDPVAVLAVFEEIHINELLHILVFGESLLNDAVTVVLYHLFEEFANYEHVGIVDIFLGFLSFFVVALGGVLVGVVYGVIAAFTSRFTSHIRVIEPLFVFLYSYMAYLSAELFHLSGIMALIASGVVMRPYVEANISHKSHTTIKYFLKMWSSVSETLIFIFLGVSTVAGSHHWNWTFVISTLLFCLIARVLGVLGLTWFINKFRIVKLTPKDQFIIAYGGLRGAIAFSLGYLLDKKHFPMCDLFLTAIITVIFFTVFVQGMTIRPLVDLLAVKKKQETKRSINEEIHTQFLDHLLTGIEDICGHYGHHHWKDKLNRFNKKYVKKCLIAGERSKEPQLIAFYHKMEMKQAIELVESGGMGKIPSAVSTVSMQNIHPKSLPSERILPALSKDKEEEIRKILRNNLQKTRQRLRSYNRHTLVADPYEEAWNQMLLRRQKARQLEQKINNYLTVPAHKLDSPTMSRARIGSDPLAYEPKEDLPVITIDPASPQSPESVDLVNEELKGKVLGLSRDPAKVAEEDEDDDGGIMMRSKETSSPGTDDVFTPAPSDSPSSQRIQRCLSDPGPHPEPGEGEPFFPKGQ

Structure (SMILES)	melting point	IC50 (NHE-1 subtype)
NC(N)=NC(=O)c1ccn(-c2ccnc3ccccc23)c1 (as salt: hydrochloride) [Example 2, 3-Guanidinocarbonyl-1-(quinol-4-yl)-1H-pyrrole dihydrochloride]	244 °C	–
Cc1c(C(=O)N=C(N)N)ccn1-c1ccnc2ccccc12 (as salt: hydrochloride) [Example 3, 3-Guanidinocarbonyl-2-methyl-1-(quinol-4-yl)-1H-pyrrole dihydrochloride]	240 °C	–
Cc1c(C(=O)NC(=N)N)ccn1-c1ccc2ccccc2n1 (as salt: hydrochloride) [Example 4, 3-Guanidinocarbonyl-2-methyl-1-(quinol-2-yl)-1H-pyrrole hydrochloride]	250 °C	–
Cl.NC(N)=NC(=O)c1ccn(-c2ccc3ccccc3n2)c1 [Example 1, 3-Guanidinocarbonyl-1-(quinol-2-yl)-1H-pyrrole hydrochloride]	258 °C	49 nM
NC(N)=NC(=O)c1ccn(-c2ccnc3ccccc23)c1 [Example 2, 3-Guanidinocarbonyl-1-(quinol-4-yl)-1H-pyrrole dihydrochloride]	–	22 nM
Cc1c(C(=O)N=C(N)N)ccn1-c1ccnc2ccccc12 [Example 3, 3-Guanidinocarbonyl-2-methyl-1-(quinol-4-yl)-1H-pyrrole dihydrochloride]	–	67 nM
Cc1c(C(=O)NC(=N)N)ccn1-c1ccc2ccccc2n1 [Example 4, 3-Guanidinocarbonyl-2-methyl-1-(quinol-2-yl)-1H-pyrrole hydrochloride]	–	96 nM
NC(N)=NC(=O)c1ccn(-c2nccc3ccccc23)c1 [Example 5, 3-Guanidinocarbonyl-1-(isoquinol-1-yl)-1H-pyrrole hydrochloride]	–	51 nM
N=C(N)NC(=O)c1ccn(-c2cccc3ncccc23)c1 [Example 6, 3-Guanidinocarbonyl-1-(quinol-5-yl)-1H-pyrrole]	260 °C	44 nM
N=C(N)NC(=O)c1ccn(-c2cccc3cccnc23)c1 [Example 7, 3-Guanidinocarbonyl-1-(quinol-8-yl)-1H-pyrrole]	155 °C	90 nM
N=C(N)NC(=O)c1ccn(-c2cncc3ccccc23)c1 [Example 8, 3-Guanidinocarbonyl-1-(isoquinol-4-yl)-1H-pyrrole]	–	121 nM
NC(N)=NC(=O)c1ccn(-c2ccnc3cc(Cl)ccc23)c1 [Example 19, N-[1-(7-Chloro-quinolin-4-yl)-1H-pyrrole-3-carbonyl]-guanidinetrifluoracetate]	–	42.9 nM
NC(N)=NC(=O)c1ccn(-c2ccnc3ccc(F)cc23)c1 [Example 21, N-[1-(6-Fluoro-quinolin-4-yl)-1H-pyrrole-3-carbonyl]-guanidinetrifluoroacetate]	–	29 nM
NC(N)=NC(=O)c1ccn(-c2ccnc3c(F)cccc23)c1 [Example 23, N-[1-(8-Fluoro-quinolin-4-yl)-1H-pyrrole-3-carbonyl]-guanidinetrifluoroacetate]	–	97.7 nM
NC(N)=NC(=O)c1ccn(-c2cnnc3ccccc23)c1 [Example 24, N-(1-Cinnolin-4-yl-1H-pyrrole-3-carbonyl)-guanidine trifluoroacetate]	–	222 nM
Cc1cn(-c2ncccn2)cc1C(=O)NC(=N)N [Example 25, N-(4-Methyl-1-pyrimidin-2-yl-1H-pyrrole-3-carbonyl)-guanidine]	208.5 °C	–
Cc1cn(-c2cncnc2)cc1C(=O)NC(=N)N [Example 28, N-(4-Methyl-1-pyrimidin-5-yl-1H-pyrrole-3-carbonyl)-guanidine]	–	192 nM

More lines, now with the values ahead:

melting point	IC50 (NHE-1 subtype)	Structure (SMILES)
215 °C	0.25 nM	Cc1cn(-c2ccnc3ccccc23)cc1C(=O)NC(=N)N [Example 9, 3-Guanidinocarbonyl-4-methyl-1-(quinol-4-yl)-1H-pyrrole]
247 °C	0.16 nM	Cc1cn(-c2nccc3ccccc23)cc1C(=O)NC(=N)N.Cl [Example 10, 3-Guanidinocarbonyl-1-(isoquinol-1-yl)4-methyl-1H-pyrrole hydrochloride]
–	19 nM	Cc1c(C(=O)NC(=N)N)cn(-c2ccnc3ccccc23)c1C [Example 11, 3-Guanidinocarbonyl-4,5-dimethyl-1-(quinol-4-yl)-1H-pyrrole dihydrochloride]
185 °C	0.5 nM	Cl.N=C(N)NC(=O)c1cn(-c2ccnc3ccccc23)cc1C1CC1 [Example 12, 4-Cyclopropyl-3-guanidinocarbonyl-1-(quinolin-4-yl)-1H-pyrrole dihydrochloride]
240 °C	0.1 nM	Cc1cn(-c2cccc3ncccc23)cc1C(=O)NC(=N)N.Cl [Example 13, 3-Guanidinocarbonyl-4-methyl-1-(quinolin-5-yl)-1H-pyrrole hydrochloride]
–	2.3 nM	N=C(N)NC(=O)c1cn(-c2ccnc3ccccc23)cc1C(F)(F)F [Example 14, 4-Trifluoromethyl-3-guanidinocarbonyl-1-(quinolin-4-yl)-1H-pyrrole]
–	2.6 nM	N=C(N)NC(=O)c1cn(-c2nccc3ccccc23)cc1C(F)(F)F [Example 15, 4-Trifluoromethyl-3-guanidinocarbonyl-1-(isoquinolin-1-yl)-1H-pyrrole hydrochloride]
–	3.1 nM	Cc1cc(-n2cc(C)c(C(=O)N=C(N)N)c2)c2ccccc2n1 [Example 16, N-[4-Methyl-1-(2-methyl-quinolin-4-yl)-1H-pyrrole-3-carbonyl]-guanidine trifluoroacetate]
–	10.7 nM	Cc1cc(-n2ccc(C(=O)N=C(N)N)c2)c2ccccc2n1 [Example 17, N-[1-(2-Methyl-quinolin-4-yl)-1H-pyrrole-3-carbonyl]-guanidinetrifluoroacetate]
–	1.6 nM	Cc1cn(-c2ccnc3cc(Cl)ccc23)cc1C(=O)N=C(N)N [Example 18, N-[1-(7-Chloro-quinolin-4-yl)-4-methyl-1H-pyrrole-3-carbonyl]-guanidine trifluoroacetate]
–	0.8 nM	Cc1cn(-c2ccnc3ccc(F)cc23)cc1C(=O)N=C(N)N [Example 20, N-[1-(6-Fluoro-quinolin-4-yl)-4-methyl-1H-pyrrole-3-carbonyl]-guanidine trifluoroacetate]
–	0.2 nM	Cc1cn(-c2ccnc3c(F)cccc23)cc1C(=O)N=C(N)N [Example 22, N-[1-(8-Fluoro-quinolin-4-yl)-4-methyl-1H-pyrrole-3-carbonyl]-guanidine trifluoroacetate]
–	3.6 nM	Cc1cn(-c2ccccn2)cc1C(=O)NC(=N)N [Example 26, N-(4-Methyl-1-pyridin-2-yl-1H-pyrrole-3-carbonyl)-guanidine]
–	0.6 nM	Cc1cn(-c2cccnc2)cc1C(=O)NC(=N)N [Example 27, N-(4-Methyl-1-pyridin-3-yl-1H-pyrrole-3-carbonyl)-guanidine]
264.4 °C	4.3 nM	CC(=O)O.Cc1cn(-c2ccc3ccccc3n2)cc1C(=O)NC(=N)N [Example 29, N-(4-Methyl-1-quinolin-2-yl-1H-pyrrole-3-carbonyl)-guanidine hydrogenacetate]
279.5 °C	17 nM	CC(=O)O.Cc1cn(-c2cnc3ccccc3c2)cc1C(=O)NC(=N)N [Example 30, N-(4-Methyl-1-quinolin-3-yl-1H-pyrrole-3-carbonyl)-guanidine hydrogenacetate]
